Blank lines part the entries; values can stand above or below the molecule they belong to.
System: 616215-338-R-J1-PDC complex spheroid viability
Test: Anticancer human tumor 616215-338-R-J1-PDC patient-derived colon adenocarcinoma cell line growth inhibition [RAS]
Conditions: for IC50: curve of first compound; for viability, T/C: stronger effect = lower value
Procedure, shortened: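 Tumour cells grown as complex spheroids with HUVEC endothelial cells and mesenchymal stem cells, treated with RAS pathway inhibitor combinations. Each agent spans half-log steps from near clinical Cmax, or 10 microM where Cmax is unknown.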
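Further: spheroids exposed to agents for seven days before viability readout.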
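Wherever viability, T/C is given: 100% = DMSO vehicle control viability.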

- IC50 (second compound 0.0316 µM): > 1000 nM
- IC50 (second compound 0.1 µM): > 1000 nM
- IC50 (second compound 0.316 µM): > 1000 nM
- IC50 (second compound 1 µM): > 1000 nM
- IC50 (second compound 3.16 µM): > 1000 nM
- IC50 (second compound 10 µM): > 1000 nM
Structure (SMILES): C=CC(=O)N1CCN(c2nc(OCC3CCCN3C)nc3c(F)c(-c4nc(N)cc(C)c4C(F)(F)F)c(Cl)cc23)C(C)C1 (centres undefined) + C#Cc1c(F)ccc2cc(O)cc(-c3ncc4c(N5CC6CCC(C5)N6)nc(OCC56CCCN5CC(F)C6)nc4c3F)c12
- viability, T/C (second compound 0.0316 µM, first compound 0.00316 µM): 107%
- viability, T/C (second compound 0.0316 µM, first compound 0.01 µM): 112%
- viability, T/C (second compound 0.0316 µM, first compound 0.0316 µM): 101%
- viability, T/C (second compound 0.0316 µM, first compound 0.1 µM): 106%
- viability, T/C (second compound 0.0316 µM, first compound 0.316 µM): 100%
- viability, T/C (second compound 0.0316 µM, first compound 1 µM): 104%
- viability, T/C (second compound 0.1 µM, first compound 0.00316 µM): 121%
- viability, T/C (second compound 0.1 µM, first compound 0.01 µM): 105%
- viability, T/C (second compound 0.1 µM, first compound 0.0316 µM): 109%
- viability, T/C (second compound 0.1 µM, first compound 0.1 µM): 107%
- viability, T/C (second compound 0.1 µM, first compound 0.316 µM): 108%
- viability, T/C (second compound 0.1 µM, first compound 1 µM): 102%
- viability, T/C (second compound 0.316 µM, first compound 0.00316 µM): 112%
- viability, T/C (second compound 0.316 µM, first compound 0.01 µM): 104%
- viability, T/C (second compound 0.316 µM, first compound 0.0316 µM): 109%
- viability, T/C (second compound 0.316 µM, first compound 0.1 µM): 112%
- viability, T/C (second compound 0.316 µM, first compound 0.316 µM): 107%
- viability, T/C (second compound 0.316 µM, first compound 1 µM): 112%
- viability, T/C (second compound 1 µM, first compound 0.00316 µM): 122%
- viability, T/C (second compound 1 µM, first compound 0.01 µM): 123%
- viability, T/C (second compound 1 µM, first compound 0.0316 µM): 114%
- viability, T/C (second compound 1 µM, first compound 0.1 µM): 120%
- viability, T/C (second compound 1 µM, first compound 0.316 µM): 124%
- viability, T/C (second compound 1 µM, first compound 1 µM): 109%
- viability, T/C (second compound 3.16 µM, first compound 0.00316 µM): 125%
- viability, T/C (second compound 3.16 µM, first compound 0.01 µM): 107%
- viability, T/C (second compound 3.16 µM, first compound 0.0316 µM): 109%
- viability, T/C (second compound 3.16 µM, first compound 0.1 µM): 112%
- viability, T/C (second compound 3.16 µM, first compound 0.316 µM): 109%
- viability, T/C (second compound 3.16 µM, first compound 1 µM): 105%
- viability, T/C (second compound 10 µM, first compound 0.00316 µM): 102%
- viability, T/C (second compound 10 µM, first compound 0.01 µM): 93.8%
- viability, T/C (second compound 10 µM, first compound 0.0316 µM): 92.8%
- viability, T/C (second compound 10 µM, first compound 0.1 µM): 99.3%
- viability, T/C (second compound 10 µM, first compound 0.316 µM): 110%
- viability, T/C (second compound 10 µM, first compound 1 µM): 93%

- IC50 (second compound 0.0316 µM): 19 nM
- IC50 (second compound 0.1 µM): 13.4 nM
- IC50 (second compound 0.316 µM): 18.9 nM
- IC50 (second compound 1 µM): 10.7 nM
- IC50 (second compound 3.16 µM): 8.28 nM
- IC50 (second compound 10 µM): 5.91 nM
Structure (SMILES): CC1(C)CCC(Nc2ncc(C(F)(F)F)c(-c3c[nH]c4c(P(C)(C)=O)c(C#N)ccc34)n2)CN1 (centres undefined) + C#Cc1c(F)ccc2cc(O)cc(-c3ncc4c(N5CC6CCC(C5)N6)nc(OCC56CCCN5CC(F)C6)nc4c3F)c12
- viability, T/C (second compound 0.0316 µM, first compound 0.000949 µM): 103%
- viability, T/C (second compound 0.0316 µM, first compound 0.003 µM): 112%
- viability, T/C (second compound 0.0316 µM, first compound 0.00949 µM): 70.1%
- viability, T/C (second compound 0.0316 µM, first compound 0.03 µM): 37.4%
- viability, T/C (second compound 0.0316 µM, first compound 0.0949 µM): 35.9%
- viability, T/C (second compound 0.0316 µM, first compound 0.3 µM): 36.8%
- viability, T/C (second compound 0.1 µM, first compound 0.000949 µM): 107%
- viability, T/C (second compound 0.1 µM, first compound 0.003 µM): 105%
- viability, T/C (second compound 0.1 µM, first compound 0.00949 µM): 56.7%
- viability, T/C (second compound 0.1 µM, first compound 0.03 µM): 37.7%
- viability, T/C (second compound 0.1 µM, first compound 0.0949 µM): 31.8%
- viability, T/C (second compound 0.1 µM, first compound 0.3 µM): 28.2%
- viability, T/C (second compound 0.316 µM, first compound 0.000949 µM): 109%
- viability, T/C (second compound 0.316 µM, first compound 0.003 µM): 105%
- viability, T/C (second compound 0.316 µM, first compound 0.00949 µM): 66.5%
- viability, T/C (second compound 0.316 µM, first compound 0.03 µM): 40.5%
- viability, T/C (second compound 0.316 µM, first compound 0.0949 µM): 32.3%
- viability, T/C (second compound 0.316 µM, first compound 0.3 µM): 31.9%
- viability, T/C (second compound 1 µM, first compound 0.000949 µM): 117%
- viability, T/C (second compound 1 µM, first compound 0.003 µM): 108%
- viability, T/C (second compound 1 µM, first compound 0.00949 µM): 52.1%
- viability, T/C (second compound 1 µM, first compound 0.03 µM): 31.2%
- viability, T/C (second compound 1 µM, first compound 0.0949 µM): 27.8%
- viability, T/C (second compound 1 µM, first compound 0.3 µM): 31.2%
- viability, T/C (second compound 3.16 µM, first compound 0.000949 µM): 109%
- viability, T/C (second compound 3.16 µM, first compound 0.003 µM): 89.3%
- viability, T/C (second compound 3.16 µM, first compound 0.00949 µM): 45.8%
- viability, T/C (second compound 3.16 µM, first compound 0.03 µM): 27.8%
- viability, T/C (second compound 3.16 µM, first compound 0.0949 µM): 34.1%
- viability, T/C (second compound 3.16 µM, first compound 0.3 µM): 36.7%
- viability, T/C (second compound 10 µM, first compound 0.000949 µM): 96.5%
- viability, T/C (second compound 10 µM, first compound 0.003 µM): 69.3%
- viability, T/C (second compound 10 µM, first compound 0.00949 µM): 37.5%
- viability, T/C (second compound 10 µM, first compound 0.03 µM): 24.7%
- viability, T/C (second compound 10 µM, first compound 0.0949 µM): 32.5%
- viability, T/C (second compound 10 µM, first compound 0.3 µM): 31.7%

Reference: PubChem BioAssay AID2060898 (Molecular Pharmacology Branch, DTP, NCI, 2025)
